PubChem BioAssay (NCI)
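Growth conditions: 96-well plates. Treatment: test compound, 48 hours, 5 concentrations. Analysis: linear interpolation between bracketing concentrations; unreached endpoints set to highest concentration. The concentration for full growth arrest is given as TGI.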

Tests used:
Assay in all cases: NCI-60 cell line screen, 48 h
NCI-H226 lung = test system: NCI-H226 lung
HOP-92 NSCLC = test system: HOP-92 NSCLC
ACHN renal = test system: ACHN renal
EKVX NSCLC = test system: EKVX NSCLC
MCF7 breast = test system: MCF7 breast
K-562 leukemia = test system: K-562 leukemia
A498 renal = test system: A498 renal
TK-10 renal = test system: TK-10 renal
OVCAR-3 ovarian = test system: OVCAR-3 ovarian
SR leukemia = test system: SR leukemia
BT-549 breast = test system: BT-549 breast
PC-3 prostate = test system: PC-3 prostate
DU-145 prostate = test system: DU-145 prostate
SF-539 CNS = test system: SF-539 CNS
HCT-116 colon = test system: HCT-116 colon
KM12 colon = test system: KM12 colon
786-0 renal = test system: 786-0 renal
COLO 205 colon = test system: COLO 205 colon
SN12C renal = test system: SN12C renal
UACC-62 melanoma = test system: UACC-62 melanoma
MALME-3M melanoma = test system: MALME-3M melanoma
HL-60(TB) leukemia = test system: HL-60(TB) leukemia
OVCAR-5 ovarian = test system: OVCAR-5 ovarian
OVCAR-8 ovarian = test system: OVCAR-8 ovarian
SW-620 colon = test system: SW-620 colon
SK-MEL-28 melanoma = test system: SK-MEL-28 melanoma
T-47D breast = test system: T-47D breast
A549 NSCLC = test system: A549 NSCLC
SF-295 CNS = test system: SF-295 CNS
SK-OV-3 ovarian = test system: SK-OV-3 ovarian
NCI-H522 lung = test system: NCI-H522 lung
LOX IMVI melanoma = test system: LOX IMVI melanoma
SK-MEL-2 melanoma = test system: SK-MEL-2 melanoma
MDA-MB-435 = test system: MDA-MB-435
SNB-19 CNS = test system: SNB-19 CNS
NCI-H460 lung = test system: NCI-H460 lung
M14 melanoma = test system: M14 melanoma
MOLT-4 leukemia = test system: MOLT-4 leukemia
SK-MEL-5 melanoma = test system: SK-MEL-5 melanoma
HCT-15 colon = test system: HCT-15 colon
MDA-N = test system: MDA-N
NCI/ADR-RES ovarian = test system: NCI/ADR-RES ovarian
RPMI-8226 leukemia = test system: RPMI-8226 leukemia
SF-268 CNS = test system: SF-268 CNS
HOP-62 NSCLC = test system: HOP-62 NSCLC
U251 CNS = test system: U251 CNS
IGROV1 ovarian = test system: IGROV1 ovarian
CCRF-CEM leukemia = test system: CCRF-CEM leukemia
CAKI-1 renal = test system: CAKI-1 renal
UO-31 renal = test system: UO-31 renal
MDA-MB-231 breast = test system: MDA-MB-231 breast
NCI-H23 lung = test system: NCI-H23 lung
HT29 colon = test system: HT29 colon

With `O=C(NNC(=O)c1ccccc1O)c1ccccc1O` the TGI (NCI-H226 lung) was greater than 100 µM, the TGI (HOP-92 NSCLC) was greater than 100 µM and the TGI (ACHN renal) was greater than 100 µM. For the same compound, the TGI (EKVX NSCLC) was greater than 100 µM, the TGI (MCF7 breast) was greater than 100 µM and the TGI (K-562 leukemia) was greater than 100 µM. For the same compound, the TGI (A498 renal) was greater than 100 µM, the TGI (TK-10 renal) was greater than 100 µM and the TGI (OVCAR-3 ovarian) was greater than 100 µM. For the same compound, the TGI (SR leukemia) was greater than 31.1 µM, the TGI (BT-549 breast) was greater than 100 µM and the TGI (PC-3 prostate) was greater than 100 µM. The TGI (DU-145 prostate) was greater than 100 µM, the TGI (SF-539 CNS) was 6.16 µM and the TGI (HCT-116 colon) was greater than 100 µM. It also gave a TGI (KM12 colon) greater than 100 µM, a TGI (786-0 renal) greater than 100 µM and a TGI (COLO 205 colon) greater than 38.9 µM. The TGI (SN12C renal) was greater than 100 µM, the TGI (UACC-62 melanoma) was greater than 100 µM and the TGI (MALME-3M melanoma) was greater than 100 µM. For the same compound, the TGI (HL-60(TB) leukemia) was 0.944 µM, the TGI (OVCAR-5 ovarian) was greater than 100 µM and the TGI (OVCAR-8 ovarian) was greater than 100 µM. It also gave a TGI (SW-620 colon) greater than 100 µM, a TGI (SK-MEL-28 melanoma) greater than 100 µM and a TGI (T-47D breast) greater than 78.4 µM. It also gave a TGI (A549 NSCLC) greater than 100 µM, a TGI (SF-295 CNS) greater than 100 µM and a TGI (SK-OV-3 ovarian) greater than 100 µM. It also gave a TGI (NCI-H522 lung) of 3.6 µM, a TGI (LOX IMVI melanoma) greater than 100 µM and a TGI (SK-MEL-2 melanoma) greater than 100 µM. It also gave a TGI (MDA-MB-435) greater than 100 µM, a TGI (SNB-19 CNS) greater than 100 µM and a TGI (NCI-H460 lung) greater than 100 µM. It also gave a TGI (M14 melanoma) of 25.4 µM, a TGI (MOLT-4 leukemia) greater than 91.7 µM and a TGI (SK-MEL-5 melanoma) greater than 34.5 µM. It also gave a TGI (HCT-15 colon) greater than 100 µM, a TGI (MDA-N) greater than 100 µM and a TGI (NCI/ADR-RES ovarian) greater than 100 µM. The TGI (RPMI-8226 leukemia) was greater than 100 µM, the TGI (SF-268 CNS) was greater than 58.4 µM and the TGI (HOP-62 NSCLC) was greater than 100 µM. It also gave a TGI (U251 CNS) greater than 100 µM, a TGI (IGROV1 ovarian) greater than 34.8 µM and a TGI (CCRF-CEM leukemia) greater than 100 µM. It also gave a TGI (CAKI-1 renal) greater than 100 µM, a TGI (UO-31 renal) greater than 100 µM and a TGI (MDA-MB-231 breast) greater than 100 µM. The TGI (NCI-H23 lung) was greater than 100 µM and the TGI (HT29 colon) was greater than 100 µM.
